“Also recorded” adds a separate entry of the source. Where a name gives a salt, the structure may show the parent alone.
Tests used:
DC = assay: Colorimetric determination of cellular GSH content of DC; type: cell-based, mouse; settings: L-BSO 0.5 mM, DMF 70 μM, MMF 200 μM
Method: Cellular GSH and GSSG were determined in micro-titer plate assays using colorimetric methods. The cellular GHS content is determined as a percentage of the GSH levels in freshly prepared controls or as pmol 10^−6 cells. GSSG was not detectable.
As antigen presenting cells (APC), T cell depleted spleen cells from syngenic mice were used. Dendritic cells (DC) which were obtained from bone marrow (BMDC) and cultured with GM-CSF were used for the relevant experiments on day 7 of culturing. For the experiment, in each case an equal number of APC were cultured either with the medium alone, with L-BSO (C8H18N2O3S, 0.5 mM), dimethyl sulfoxide DMSO(C2H6OS), dimethyl fumarate DMF (C6H8O4, dissolved in DMSO, 70 μM), or calcium monomethyl fumarate (MMF; CaC10H10O8, 200 μM). All substances except for MMF (Fumapharm) were purchased from Sigma-Aldrich. At the respective stated times (see below) the cells were either analyzed directly for their GSH content, used for T cell stimulation or stimulated for […] with Escherichia coli lipopolysaccharides 055.B5 (Sigma-Aldrich) or CpG-DNA 1668 (MWG Biotech) and IL-4 (Stratmann). […]
For the testing of the potential of pharmaceutical substances to lower the glutathione content of cells, the following procedure was carried out: cells (antigen-presenting cells or dendritic cells) are incubated with different concentrations of the given pharmaceutical substance to be tested. Then, after an incubation time of 1 hr, 2 hrs, 24 hrs or 48 hrs, the glutathione content of the cells is determined in comparison to control cells. […]
The samples and the GSH standard were diluted in a microtiter plate and the assay reaction started by addition of a reaction mix which contains glutathione reductase. […] The rise in the extinction is measured at 405 nm at 30 sec intervals over 10 mins with a microtiter plate reader. The glutathione content was determined using a calibration curve. […] The protein content was determined by the method of Lowry (see for example, Dringen, et al., “Supply by Astrocytes of CysGly as Precursor for neuronal Glutathione”, J. Neurosci 19:562-569). […]

[1] = tested on: experimental autoimmune encephalomyelitis (EAE); assay: EAE after transfer of in vitro generated PLP-specific T cells into naive SJL mice; type: in vivo; settings: 10^7 lymphocytes injected into naive SJL mice
Method: Spleen and lymph node CD4^+ T cells were stimulated with PLP (proteolipid protein) peptide 139-151 (10 μg/ml) and stimulated for four days with irradiated SJL-APC in the presence or absence of L-BSO (0.5 mM, Sigma), expanded for three to four days and then restimulated for cytokine production (proteolipid protein is the commonest myelin protein in the central nervous system and plays an important part as an autoantigen in the onset of multiple sclerosis). Next, 10^7 sham (control) or L-BSO treated T cells were injected intraperitoneally into naive SJL mice and the EAE developing as a result was observed. […] Half of the group was fed daily for 14 days with DMF 0.3 mg/ml (Fluka) or L-BSO 0.15 mg/ml in the drinking water. For the cytokine analysis of PLP-specific T cells, the draining lymph nodes of the SJL mice were removed 6 days after the immunization and CD4^+ T cells antigen-specifically analyzed (ELISPOT). For this, ELISPOT plates (Millipore Corporation) were coated with anti-IFN-γ or anti-IL-4 antibodies overnight at 4° C., blocked after 12 hrs with PBS/10% FCS and, after the solution had been poured off, the isolated T lymphocytes were incubated with APC and medium alone or in the presence of PLP peptide. After the incubation time, the cells were poured off, and the plates washed with PBS/Tween and incubated with biotin-conjugated secondary antibodies. After further washing procedures and incubation with streptavidin-alkaline phosphatase (Boehringer), the plates were incubated with developer solution. After washing with H2O, the number of spots was determined in the ELISPOT reader (Biosys).
Since the induction of the TH2 phenotype could adversely affect the ability of the CD4^+ T cells to induce autoimmune diseases in immunocompetent mice, it was concluded that GSH^lowIL12^−DC2 could weaken the ability of autoreactive CD4^+ T cells to induce the disease. For the next experiments, lymphocytes from SJL mice were stimulated twice with PLP peptide, either in the presence or absence of L-BSO, DMF or MMF. […]

SMILES	intracellular GSH content of DC (DC)	ability of T cells generated in the presence of the substance to induce EAE [1]
COC(=O)/C=C/C(=O)[O-].[Ca+] [MMF, calcium monomethyl fumarate]	depletes the intracellular glutathione level; also recorded: marked decrease	not able to trigger severe encephalomyelitis
CCCCS(=N)(=O)CCC(N)C(=O)O [L-BSO, L-buthionine sulfoximine]	depletes the intracellular glutathione level; also recorded: marked decrease	scarcely still capable of inducing EAE in vivo
COC(=O)/C=C/C(=O)OC [DMF, dimethyl fumarate]	depletes the intracellular glutathione level; also recorded: marked decrease	not able to trigger severe encephalomyelitis
